Holding throughout (assay type): in vivo
Assay [1] in a line: Sensory panel evaluation of naringenin in water (Example 1). To be noted: for Sweetness: sensory panelists. The method, then:
Naringenin was evaluated in water as shown in Table B. Water used in all beverages described herein was specifically purified prior to use by processes well known in the art such as filtration, deionization, distillation, or reverse osmosis. Evaluation of the samples was performed using evaluation by sensory panelists. Beverage sampling comprised of taking an about 10 mL portion of the beverage into the mouth, holding the sample in the mouth, and rating the sweetness for each sample.

The nature of assay [2]: Taste evaluation of beverages with rebaudioside E, rebaudioside M or both, with and without naringenin (Example 3). As to the method:
In this example, samples were prepared to determine the taste attributes of reduced-calorie beverages including rebaudioside E, rebaudioside M, and combinations of rebaudiosides E and M, with and without naringenin. Beverages were prepared by adding rebaudiosides to the base solution shown in Table E. The tested concentrations of rebaudioside E, rebaudioside M, or a combination of both rebaudiosides, are shown in Table F. Beverages were then prepared by adding naringenin in various amounts, ranging from about 10 ppm to about 300 ppm, as shown in Table G. For example, naringenin was added to the base solution and each of the rebaudioside solutions shown in Table F. Further description of the beverages prepared in Example 3 is also shown in FIG. 2 of the drawings. Each of the prepared beverages was evaluated for changes or improvements for each of sweetness profile (upfront, middle, and back end sweetness), aftertaste (chemical, astringency), mouthfeel (cloying, thickness, thinness), and bitterness (relative to Rebaudioside A). For example, in a protocol to compare the bitterness of beverage samples to rebaudioside A, participants tasted each of an about 10 ml sample of the test beverage and an about 10 ml sample of a beverage including rebaudioside A (prepared in the same base solution shown in Table E). Relative bitterness was then immediately rated between the beverage samples.

A short description of assay [3]: Taste evaluation of reduced-calorie beverage (Table C base formula) with added naringenin, compared to a full-calorie beverage (Example 2). From the text:
The base formula of Table C may provide about a 50% reduction in calories as compared to a typical full-calorie beverage.
For example, delocalization of sweetness, an attribute that relates to the beverage mouthfeel, was increased. […] Moreover, the aftertaste of naringenin-including samples became more syrupy, resulting in an aftertaste that was more similar to the full-calorie product. Improvements in sweetness and aftertaste were found for each of the above samples that included naringenin.

Where [4] appears, read: Table C base formula with naringenin 15 to 300 ppm.

This note sets out measurements from US11185096B2, “Sweet taste improving compositions including naringenin and steviol glycosides” (DR PEPPER/SEVEN UP, INC., priority 2014, dated 2021).

As to `O=C1C[C@@H](c2ccc(O)cc2)Oc2cc(O)cc(O)c21` [naringenin], the taste or flavor entry in assay [1] (in water, data of Table B (5 to 200 ppm)) is “does not elicit any taste or flavor”. The Sweetness entry in assay [1] (naringenin 5 ppm in water), in assay [1] (naringenin 10 ppm in water), in assay [1] (naringenin 20 ppm in water), in assay [1] (naringenin 40 ppm in water), in assay [1] (naringenin 80 ppm in water) and in assay [1] (naringenin 100 ppm in water) was “No perceptible sweetness” throughout. Moreover, the Sweetness entry in assay [1] (naringenin 200 ppm in water) is “No perceptible sweetness”. Besides, the overall perception entry in assay [2] (10, 50 or 70 ppm naringenin with combination of rebaudioside E and rebaudioside M, vs rebaudioside M alone or with naringenin) was “perceived as better”; in assay [2] (300 ppm naringenin, Table E base with rebaudioside E 300 ppm) it was “perceived as negative”; in assay [2] (300 ppm naringenin, Table E base with rebaudioside M 300 ppm), “perceived as negative”; in assay [2] (300 ppm naringenin, Table E base with rebaudiosides E and M 150 ppm each), “perceived as negative”. Further, the mouthfeel result in assay [2] (10 to 70 ppm naringenin with rebaudioside E, compared to rebaudioside E base alone) is “increased”; in assay [2] (higher naringenin concentrations, particularly 300 ppm, Table E base with rebaudioside M 300 ppm, some participants), “cloying mouthfeel”. Moreover, the “suitability of naringenin level” value in assay [2] (300 ppm naringenin, across all bases) is “too high”. In assay [2] (about 10 ppm to 70 ppm naringenin, Table E base with rebaudioside E 150 ppm and rebaudioside M 150 ppm), the sweetness profiles entry was “significantly improved”. In addition, the “cloying mouthfeel and aftertaste” value in assay [2] (about 10 ppm to about 70 ppm naringenin, Table E base with rebaudiosides E and M 150 ppm each) is reported as “diminished”. Besides, in assay [2] (naringenin added to Table E base with rebaudioside E 300 ppm), the “sweetness in the middle of the profile” value is listed as “increased”. Besides, the “taste character / mouthfeel” value in assay [2] (naringenin added to Table E base with rebaudioside M 300 ppm) is reported as “sticky sweet”. Further, in assay [3] (setting [4]), the delocalization of sweetness result is given as “increased”. Also, the upfront sweetness profile result in assay [3] (setting [4]) was “surprisingly increased”. Further, the “syrup qualities of the beverages (mouthfeel)” value in assay [3] (Table C base formula with naringenin 15 to 300 ppm, vs full-calorie beverage) was “increase syrup qualities”. The aftertaste entry in assay [3] (Table C base formula with naringenin 15 to 300 ppm, vs full-calorie product) is recorded as “more syrupy”. Further, the sweetness profile result in assay [3] (Table C base formula, 15 ppm naringenin) is given as “significantly improved”; in assay [3] (Table C base formula, about 30 ppm naringenin), “close to that of the full-calorie product”. The “noticeable taste impressions or interference with flavors” value in assay [3] (Table C base formula, above 30 ppm up to about 300 ppm naringenin) was “did not provide any noticeable taste impressions”.
Take `C=C1C[C@@]23CC[C@H]4[C@@](C)(CCC[C@@]4(C)C(=O)O[C@@H]4O[C@H](CO)[C@@H](O)[C@H](O)[C@H]4O[C@@H]4O[C@H](CO)[C@@H](O)[C@H](O)[C@H]4O)[C@@H]2CC[C@]1(O[C@@H]1O[C@H](CO)[C@@H](O)[C@H](O)[C@H]1O[C@@H]1O[C@H](CO)[C@@H](O)[C@H](O)[C@H]1O)C3` [rebaudioside E]: the sweetness profile result in assay [2] (Table E base with rebaudioside E 300 ppm, without naringenin, in comparison to sugar or rebaudioside M solutions) was “very flat sweetness profile and flat”. Besides, the mouthfeel and fullness entry in assay [2] (rebaudioside E alone without naringenin, compared to rebaudioside M) is “less mouthfeel and fullness”.
